Non-standard residues stand in square brackets, D forms with d. Residues, ends and D or L forms follow the SMILES beside them. Groups on a side chain read outwards from the residue. *: point of attachment. Shikimoyl = O=C(C1=C[C@@H](O)[C@@H](O)[C@H](O)C1)*; dPhe(4-Cl) = N[C@H](Cc1ccc(Cl)cc1)C(=O)O; d2Nal = N[C@H](Cc1ccc2ccccc2c1)C(=O)O; NMeY = CN[C@@H](Cc1ccc(O)cc1)C(=O)O; d3Pal = N[C@H](Cc1cccnc1)C(=O)O; Nicotinoyl = O=C(c1cccnc1)*
biological target: T1, LHRH (Rattus norvegicus, UniProt P30969); assay: in vitro test for LHRH antagonist potency (pA2); format: cell-based; conditions: negative logarithm of the antagonist concentration required to shift the response curve produced by the agonist leuprolide to two-fold higher concentration
T1 construct: endogenous in cells; host or cells: rat pituitary cells (own knowledge of the cited Haviv 1989 method)
T1 sequence (P30969 1-327): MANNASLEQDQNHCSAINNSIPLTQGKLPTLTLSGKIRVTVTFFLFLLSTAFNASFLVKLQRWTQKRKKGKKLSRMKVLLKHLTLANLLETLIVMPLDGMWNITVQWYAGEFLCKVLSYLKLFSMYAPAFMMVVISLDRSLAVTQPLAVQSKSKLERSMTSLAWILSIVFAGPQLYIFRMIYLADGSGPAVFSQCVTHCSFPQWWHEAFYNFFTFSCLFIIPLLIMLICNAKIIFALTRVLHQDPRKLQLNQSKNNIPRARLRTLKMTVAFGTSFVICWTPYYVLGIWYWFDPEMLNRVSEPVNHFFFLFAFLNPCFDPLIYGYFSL
Method in brief: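 Antagonism read against the agonist leuprolide on rat LHRH receptor; value is pA2, the −log of antagonist concentration that doubles the agonist concentration needed for the same response.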

Row | Compound | Kb [pM]
1 | CC(C)C[C@H](NC(=O)[C@@H](CCCCNC(=O)C1=C[C@@H](O)[C@@H](O)[C@H](O)C1)NC(=O)[C@H](Cc1ccc(O)cc1)N(C)C(=O)[C@H](CO)NC(=O)[C@@H](Cc1cccnc1)NC(=O)[C@@H](Cc1ccc(Cl)cc1)NC(=O)[C@@H](Cc1ccc2ccccc2c1)NC(=O)[C@@H](C)NC(=O)C1=C[C@@H](O)[C@@H](O)[C@H](O)C1)C(=O)N[C@@H](CCCNC(=N)N)C(=O)N1CCC[C@H]1C(=O)N[C@H](C)C(N)=O [Example 14d, N-Shikimyl-DAla-D2Nal-D4ClPhe-D3Pal-Ser-NMeTyr-DLys(Shik)-Leu-Arg-Pro-DAlaNH2] (Shikimoyl-[dA][d2Nal][dPhe(4-Cl)][d3Pal]S[NMeY][dK](Shikimoyl)LRP[dA]-NH2) | 8.91
2 | CC(C)C[C@H](NC(=O)[C@@H](CCCCNC(=O)C1=C[C@@H](O)[C@@H](O)[C@H](O)C1)NC(=O)[C@H](Cc1ccc(O)cc1)N(C)C(=O)[C@H](CO)NC(=O)[C@@H](Cc1cccnc1)NC(=O)[C@@H](Cc1ccc(Cl)cc1)NC(=O)[C@@H](Cc1ccc2ccccc2c1)NC(=O)[C@@H](CO)NC(=O)c1cccnc1)C(=O)N[C@@H](CCCNC(=N)N)C(=O)N1CCC[C@H]1C(=O)N[C@H](C)C(N)=O [Example 14e, N-Nicotinyl-DSer-D2Nal-D4ClPhe-D3Pal-Ser-NMeTyr-DLys(Shik)-Leu-Arg-Pro-DAlaNH2] (Nicotinoyl-[dS][d2Nal][dPhe(4-Cl)][d3Pal]S[NMeY][dK](Shikimoyl)LRP[dA]-NH2) | 19.5
3 | CC(C)C[C@H](NC(=O)[C@@H](CCCCNC(=O)C1=C[C@@H](O)[C@@H](O)[C@H](O)C1)NC(=O)[C@H](Cc1ccc(O)cc1)N(C)C(=O)[C@H](CO)NC(=O)[C@@H](Cc1cccnc1)NC(=O)[C@@H](Cc1ccc(Cl)cc1)NC(=O)[C@@H](Cc1ccc2ccccc2c1)NC(=O)[C@@H](CO)NC(=O)C1=C[C@@H](O)[C@@H](O)[C@H](O)C1)C(=O)N[C@@H](CCCNC(=N)N)C(=O)N1CCC[C@H]1C(=O)N[C@H](C)C(N)=O [Example 14f, N-Shikimyl-DSer-D2Nal-D4ClPhe-D3Pal-Ser-NMeTyr-DLys(Shik)-Leu-Arg-Pro-DAlaNH2] (Shikimoyl-[dS][d2Nal][dPhe(4-Cl)][d3Pal]S[NMeY][dK](Shikimoyl)LRP[dA]-NH2) | 35.5
4 | CC(C)C[C@H](NC(=O)[C@@H](CCCCNC(=O)C1=C[C@@H](O)[C@@H](O)[C@H](O)C1)NC(=O)[C@H](Cc1ccc(O)cc1)N(C)C(=O)[C@H](CO)NC(=O)[C@@H](Cc1cccnc1)NC(=O)[C@@H](Cc1ccc(Cl)cc1)NC(=O)[C@@H](Cc1ccc2ccccc2c1)NC(=O)[C@@H](CCCCNC(=O)c1cccnc1)NC(=O)c1cccnc1)C(=O)N[C@@H](CCCNC(=N)N)C(=O)N1CCC[C@H]1C(=O)N[C@H](C)C(N)=O [Example 14g, N-Nicotinyl-DLys(Nic)-D2Nal-D4ClPhe-D3Pal-Ser-NMeTyr-DLys(Shik)-Leu-Arg-Pro-DAlaNH2] (Nicotinoyl-[dK](Nicotinoyl)[d2Nal][dPhe(4-Cl)][d3Pal]S[NMeY][dK](Shikimoyl)LRP[dA]-NH2) | 110
5 | CC(C)C[C@H](NC(=O)[C@@H](CCCCNC(=O)C1=C[C@@H](O)[C@@H](O)[C@H](O)C1)NC(=O)[C@H](Cc1ccc(O)cc1)N(C)C(=O)[C@H](CO)NC(=O)[C@@H](Cc1cccnc1)NC(=O)[C@@H](Cc1ccc(Cl)cc1)NC(=O)[C@@H](Cc1ccc2ccccc2c1)NC(=O)[C@@H](CCCCNC(=O)c1cccnc1)NC(=O)C1=C[C@@H](O)[C@@H](O)[C@H](O)C1)C(=O)N[C@@H](CCCNC(=N)N)C(=O)N1CCC[C@H]1C(=O)N[C@H](C)C(N)=O [Example 14h, N-Shikimyl-DLys(Nic)-D2Nal-D4ClPhe-D3Pal-Ser-NMeTyr-DLys(Shik)-Leu-Arg-Pro-DAlaNH2] (Shikimoyl-[dK](Nicotinoyl)[d2Nal][dPhe(4-Cl)][d3Pal]S[NMeY][dK](Shikimoyl)LRP[dA]-NH2) | 4.17
6 | CC(C)C[C@H](NC(=O)[C@@H](CCCCNC(=O)C1=C[C@@H](O)[C@@H](O)[C@H](O)C1)NC(=O)[C@H](Cc1ccc(O)cc1)N(C)C(=O)[C@H](CO)NC(=O)[C@@H](Cc1cccnc1)NC(=O)[C@@H](Cc1ccc(Cl)cc1)NC(=O)[C@@H](Cc1ccc2ccccc2c1)NC(=O)[C@@H](CCCCNC(=O)C1=C[C@@H](O)[C@@H](O)[C@H](O)C1)NC(=O)c1cccnc1)C(=O)N[C@@H](CCCNC(=N)N)C(=O)N1CCC[C@H]1C(=O)N[C@H](C)C(N)=O [Example 14i, N-Nicotinyl-DLys(Shik)-D2Nal-D4ClPhe-D3Pal-Ser-NMeTyr-DLys(Shik)-Leu-Arg-Pro-DAlaNH2] (Nicotinoyl-[dK](Shikimoyl)[d2Nal][dPhe(4-Cl)][d3Pal]S[NMeY][dK](Shikimoyl)LRP[dA]-NH2) | 339
7 | CC(C)C[C@H](NC(=O)[C@@H](CCCCNC(=O)C1=C[C@@H](O)[C@@H](O)[C@H](O)C1)NC(=O)[C@H](Cc1ccc(O)cc1)N(C)C(=O)[C@H](CO)NC(=O)[C@@H](Cc1cccnc1)NC(=O)[C@@H](Cc1ccc(Cl)cc1)NC(=O)[C@@H](Cc1ccc2ccccc2c1)NC(=O)[C@@H](CCCCNC(=O)C1=C[C@@H](O)[C@@H](O)[C@H](O)C1)NC(=O)C1=C[C@@H](O)[C@@H](O)[C@H](O)C1)C(=O)N[C@@H](CCCNC(=N)N)C(=O)N1CCC[C@H]1C(=O)N[C@H](C)C(N)=O [Example 14j, N-Shikimyl-DLys(Shik)-D2Nal-D4ClPhe-D3Pal-Ser-NMeTyr-DLys(Shik)-Leu-Arg-Pro-DAlaNH2] (Shikimoyl-[dK](Shikimoyl)[d2Nal][dPhe(4-Cl)][d3Pal]S[NMeY][dK](Shikimoyl)LRP[dA]-NH2) | 759
8 | CC(C)C[C@H](NC(=O)[C@@H](CCCCNC(=O)C1=C[C@@H](O)[C@@H](O)[C@H](O)C1)NC(=O)[C@H](Cc1ccc(O)cc1)N(C)C(=O)[C@H](CO)NC(=O)[C@@H](Cc1cccnc1)NC(=O)[C@@H](Cc1ccc(Cl)cc1)NC(=O)[C@@H](Cc1ccc2ccccc2c1)NC(=O)CNC(=O)c1cccnc1)C(=O)N[C@@H](CCCNC(=N)N)C(=O)N1CCC[C@H]1C(=O)N[C@H](C)C(N)=O [Example 14k, N-Nicotinyl-Gly-D2Nal-D4ClPhe-D3Pal-Ser-NMeTyr-DLys(Shik)-Leu-Arg-Pro-DAlaNH2] (Nicotinoyl-G[d2Nal][dPhe(4-Cl)][d3Pal]S[NMeY][dK](Shikimoyl)LRP[dA]-NH2) | 10
9 | CC(C)C[C@H](NC(=O)[C@@H](CCCCNC(=O)C1=C[C@@H](O)[C@@H](O)[C@H](O)C1)NC(=O)[C@H](Cc1ccc(O)cc1)N(C)C(=O)[C@H](CO)NC(=O)[C@@H](Cc1cccnc1)NC(=O)[C@@H](Cc1ccc(Cl)cc1)NC(=O)[C@@H](Cc1ccc2ccccc2c1)NC(=O)CNC(=O)C1=C[C@@H](O)[C@@H](O)[C@H](O)C1)C(=O)N[C@@H](CCCNC(=N)N)C(=O)N1CCC[C@H]1C(=O)N[C@H](C)C(N)=O [Example 14l, N-Shikimyl-Gly-D2Nal-D4ClPhe-D3Pal-Ser-NMeTyr-DLys(Shik)-Leu-Arg-Pro-DAlaNH2] (Shikimoyl-G[d2Nal][dPhe(4-Cl)][d3Pal]S[NMeY][dK](Shikimoyl)LRP[dA]-NH2) | 20
10 | CC(C)C[C@H](NC(=O)[C@@H](CCCCNC(=O)c1cccnc1)NC(=O)[C@H](Cc1ccc(O)cc1)N(C)C(=O)[C@H](CO)NC(=O)[C@@H](Cc1cccnc1)NC(=O)[C@@H](Cc1ccc(Cl)cc1)NC(=O)[C@@H](Cc1ccc2ccccc2c1)NC(=O)CNC(=O)C1=C[C@@H](O)[C@@H](O)[C@H](O)C1)C(=O)N[C@@H](CCCNC(=N)N)C(=O)N1CCC[C@H]1C(=O)N[C@H](C)C(N)=O [Example 15a, N-Shikimyl-Gly-D2Nal-D4ClPhe-D3Pal-Ser-NMeTyr-DLys(Nic)-Leu-Arg-Pro-DAlaNH2] (Shikimoyl-G[d2Nal][dPhe(4-Cl)][d3Pal]S[NMeY][dK](Nicotinoyl)LRP[dA]-NH2) | 63.1
11 | CC(C)C[C@H](NC(=O)[C@@H](CCCCNC(=O)CNC(=O)c1cccnc1)NC(=O)[C@H](Cc1ccc(O)cc1)N(C)C(=O)[C@H](CO)NC(=O)[C@@H](Cc1cccnc1)NC(=O)[C@@H](Cc1ccc(Cl)cc1)NC(=O)[C@@H](Cc1ccc2ccccc2c1)NC(=O)CNC(=O)C1=C[C@@H](O)[C@@H](O)[C@H](O)C1)C(=O)N[C@@H](CCCNC(=N)N)C(=O)N1CCC[C@H]1C(=O)N[C@H](C)C(N)=O [Example 15b, N-Shikimyl-Gly-D2Nal-D4ClPhe-D3Pal-Ser-NMeTyr-DLys(Gly-Nic)-Leu-Arg-Pro-DAlaNH2] (Shikimoyl-G[d2Nal][dPhe(4-Cl)][d3Pal]S[NMeY][dK]([Gly-Nicotinoyl])LRP[dA]-NH2) | 20.9
12 | CC(C)C[C@H](NC(=O)[C@@H](CCCCNC(=O)[C@@H](CO)NC(=O)c1cccnc1)NC(=O)[C@H](Cc1ccc(O)cc1)N(C)C(=O)[C@H](CO)NC(=O)[C@@H](Cc1cccnc1)NC(=O)[C@@H](Cc1ccc(Cl)cc1)NC(=O)[C@@H](Cc1ccc2ccccc2c1)NC(=O)CNC(=O)C1=C[C@@H](O)[C@@H](O)[C@H](O)C1)C(=O)N[C@@H](CCCNC(=N)N)C(=O)N1CCC[C@H]1C(=O)N[C@H](C)C(N)=O [Example 15c, N-Shikimyl-Gly-D2Nal-D4ClPhe-D3Pal-Ser-NMeTyr-DLys(DSer-Nic)-Leu-Arg-Pro-DAlaNH2] (Shikimoyl-G[d2Nal][dPhe(4-Cl)][d3Pal]S[NMeY][dK]([dS-Nicotinoyl])LRP[dA]-NH2) | 10
13 | CC(C)C[C@H](NC(=O)[C@@H](CCCCNC(=O)CNC(=O)C1=C[C@@H](O)[C@@H](O)[C@H](O)C1)NC(=O)[C@H](Cc1ccc(O)cc1)N(C)C(=O)[C@H](CO)NC(=O)[C@@H](Cc1cccnc1)NC(=O)[C@@H](Cc1ccc(Cl)cc1)NC(=O)[C@@H](Cc1ccc2ccccc2c1)NC(=O)CNC(=O)C1=C[C@@H](O)[C@@H](O)[C@H](O)C1)C(=O)N[C@@H](CCCNC(=N)N)C(=O)N1CCC[C@H]1C(=O)N[C@H](C)C(N)=O [Example 15d, N-Shikimyl-Gly-D2Nal-D4ClPhe-D3Pal-Ser-NMeTyr-DLys(Gly-Shik)-Leu-Arg-Pro-DAlaNH2] (Shikimoyl-G[d2Nal][dPhe(4-Cl)][d3Pal]S[NMeY][dK]([Gly-Shikimoyl])LRP[dA]-NH2) | 17.8

Reference: patent publication US5502035A, “N-terminus modified analogs of LHRH” (Tap Holdings Inc., priority 1994, dated 1996)
